Reference: patent publication US9447136B2, “Semisynthetic derivatives of Nystatin A1” (BLIRT S.A., priority 2012, dated 2016)
Where two headings read alike, the source gives them in different places.

Legend:
[1] = test system: Candida glabrata DSM 11226; assay: Antifungal activity in vitro, serial dilution in RPMI 1640; type: cell-based; details: Table 2A; RPMI 1640, pH 7.0
Protocol: (§1) For the determination of antifungal activity in vitro we used method of serial dilution in buffered medium RPMI 1640, pH 7.0, in a 96-wells microplates, according to the standard procedure (National Committee for Clinical Laboratory Standards. Reference method for broth dilution antifungal susceptibility testing of yeast, approved standard, 2nd ed. M27-A2 vol. 22 Wayne, Pa., 2002). The optical density of cells suspension was measured using a microplates reader (Victor^3, Perkin-Elmer) at the wavelength λ=531 nm (A531). On the basis of obtained results the diagrams of relation between A531 values and concentration of examined compound were made. From these graphs, the IC50 values were read, which were the interpolated concentrations of a tested compound, at which the A531 value was exactly 50% of the A531 value for the control sample. Moreover, MIC values, that are the lowest concentration of tested compound at which the A531 value were at most 20% of the A531 value measured for the control sample.

[2] = test system: Candida albicans ATCC 10231; assay: as above; type: cell-based; details: Table 2A, RPMI 1640, pH 7.0; for Antifungal activity Candida albicans ATCC 10231 IC50: A531 50% of control; for Antifungal activity Candida albicans ATCC 10231 MIC: A531 at most 20% of control
Protocol: as §1

[3] = test system: Candida tropicalis KKP 334; assay: as above; type: cell-based; details: Table 2A; RPMI 1640, pH 7.0
Protocol: as §1

Candida krusei DSM 6128 = assay: as above; type: cell-based; details: Table 2A; RPMI 1640, pH 7.0
Protocol: as §1

[4] = test system: Saccharomyces cerevisiae ATCC 9763; assay: as above; type: cell-based; details: Table 2A; RPMI 1640, pH 7.0; A531 at most 20% of control
Protocol: as §1

Human erythrocytes = assay: Hemotoxicity (hemolytic activity)
Protocol: The hemotoxicity determination were carried out by the serial dilutions method, according to the procedure described earlier (Ślisz, M., et al., E., J Antibiot 57: 669-678 (2004)). Human erythrocytes were suspensed in the solution of saline to obtain a cell density of suspension 2×10^7/ml. Suitable amounts of diluted solutions of compounds were added to the cell suspension in tubes and were incubated at 37° C. for 30 minutes and then centrifuged (1700×g, 10 min, 4° C.). The concentration of hemoglobin in supernatant after centrifugation of erythrocytes suspension were determined by measuring the absorbance at wavelength λ=540 nm (A540). The maximum level of hemolysis was obtained after incubation of cells suspension in the presence of 0.1% Tritone X-100 (control sample). […] From these graphs, the EH50 values were read which are the interpolated concentrations of compound, for which the A540 value is exactly 50% of the A540 value measured for the control sample.

[5] = human erythrocytes, concentration causing 10% of hemolysis

Row | Molecule | Antifungal activity Candida glabrata DSM 11226 MIC [1] [µg/mL] | Antifungal activity Candida albicans ATCC 10231 IC50 [2] [µg/mL] | Antifungal activity Candida albicans ATCC 10231 MIC [2] [µg/mL] | Antifungal activity Candida tropicalis KKP 334 MIC [3] [µg/mL] | Antifungal activity Candida krusei DSM 6128 MIC (Candida krusei DSM 6128) [µg/mL] | Antifungal activity Saccharomyces cerevisiae ATCC 9763 MIC [4] [µg/mL] | % of hemolysis at the concentration 300 μg ml^−1 (Human erythrocytes) [%] | EH10 (Human erythrocytes) [µg/mL] | Hemotoxicity BEH50 (Human erythrocytes; human erythrocytes, 37° C., 30 minutes, concentration causing 50% hemolysis, maximum concentration 300 μg/ml) [µg/mL] | % of hemolysis at the concentration 300 μg ml^−1 (Human erythrocytes; human erythrocytes, 300 μg ml^−1) [%] | EH10 (Human erythrocytes; [5]) [µg/mL]
1 | CC1OC(O[C@H]2/C=C/C=C/C=C/C=C/CC/C=C/C=C/[C@H](C)[C@@H](O)[C@@H](C)[C@H](C)OC(=O)C[C@H](O)C[C@H](O)C[C@H](O)CC[C@@H](O)[C@H](O)CC3(O)C[C@H](O)[C@@H](C(=O)O)[C@H](C2)O3)C(O)C(NC2CC(=O)N(Cc3ccccc3)C2=O)C1O (stereo partly shown) [Compound N1, N—(N′-benzylsuccinimidyl)nystatin A1] | 16 | 5.36 | 8 | 8 | 32 | 8 | – | – | – | – | –
2 | CC1OC(O[C@H]2/C=C/C=C/C=C/C=C/CC/C=C/C=C/[C@H](C)[C@@H](O)[C@@H](C)[C@H](C)OC(=O)C[C@H](O)C[C@H](O)C[C@H](O)CC[C@@H](O)[C@H](O)CC3(O)C[C@H](O)[C@@H](C(=O)O)[C@H](C2)O3)C(O)C(NC2CC(=O)N(c3ccc(Br)cc3)C2=O)C1O (stereo partly shown) [Compound N2, N—(N′-4-bromophenylsuccinimidyl)nystatin A1] | 16 | 4.99 | 8 | 8 | 16 | 8 | – | – | – | – | –
3 | Cc1cc(C)c(N2C(=O)CC(N[C@@H]3[C@H](O)[C@H](O[C@H]4/C=C/C=C/C=C/C=C/CC/C=C/C=C/[C@H](C)[C@@H](O)[C@@H](C)[C@H](C)OC(=O)C[C@H](O)C[C@H](O)CC[C@@H](O)[C@H](O)C[C@H](O)C[C@]5(O)C[C@H](O)[C@@H](C(=O)O)[C@H](C4)O5)O[C@H](C)[C@H]3O)C2=O)c(C)c1 (stereo partly shown) [Compound N3, N—(N′-2,4,6-trimethylphenylsuccinimidyl)nystatin A1] | 32 | 11.76 | 16 | 16 | – | 8 | – | – | – | – | –
4 | Cc1cccc(C)c1N1C(=O)CC(NC2C(O)C(C)OC(O[C@H]3/C=C/C=C/C=C/C=C/CC/C=C/C=C/[C@H](C)[C@@H](O)[C@@H](C)[C@H](C)OC(=O)C[C@H](O)C[C@H](O)C[C@H](O)CC[C@@H](O)[C@H](O)CC4(O)C[C@H](O)[C@@H](C(=O)O)[C@H](C3)O4)C2O)C1=O (stereo partly shown) [Compound N4, N—(N′-2,6-dimethyl-phenylsuccinimidyl)nystatin A1] | 16 | 6.32 | 8 | 8 | 16 | 8 | – | – | – | – | –
5 | CCCN(CC1(O)OCC(O)C(O)C1O)C1C(O)C(C)OC(OC2C=CC=CC=CC=CCCC=CC=CC(C)C(O)C(C)C(C)OC(=O)CC(O)CC(O)CC(O)CCC(O)C(O)CC3(O)CC(O)C(C(=O)O)C(C2)O3)C1O (stereo not shown) [Compound N27, N-fructosyl-N-n-propylnystatin A1] | – | – | – | – | – | – | 7.34 | >300 | – | – | –
6 | CC1OC(O[C@H]2/C=C/C=C/C=C/C=C/CC/C=C/C=C/[C@H](C)[C@@H](O)[C@@H](C)[C@H](C)OC(=O)C[C@H](O)C[C@H](O)C[C@H](O)CC[C@@H](O)[C@H](O)CC3(O)C[C@H](O)[C@@H](C(=O)O)[C@H](C2)O3)C(O)C(NC(=O)[C@@H](N)CCC(=O)OC(C)(C)C)C1O (stereo partly drawn) [Compound N35, N-L-(O-tert-butyl)glutamylnystatin A1] | 16 | 6.36 | 8 | 16 | 16 | 8 | – | – | – | – | –
7 | CC1C=CC=CCCC=CC=CC=CC=CC(OC2OC(C)C(O)C(NC(=O)C(N)COC(C)(C)C)C2O)CC2OC(O)(CC(O)CC(O)C(O)CCC(O)CC(O)CC(=O)OC(C)C(C)C1O)CC(O)C2C(=O)O [Compound N36, N-L-(O-tert-butyl)serylnystatin A1] | – | – | – | – | – | – | 8.24 | >300 | – | – | –
8 | C[C@@H]1[C@H](O)[C@@H](C)/C=C/C=C/CC/C=C/C=C/C=C/C=C/[C@H](O[C@@H]2O[C@H](C)[C@@H](O)[C@H](NC(=O)[C@H](N)COC(C)(C)C)[C@@H]2O)C[C@@H]2O[C@](O)(C[C@@H](O)C[C@@H](O)[C@H](O)CC[C@@H](O)C[C@@H](O)CC(=O)O[C@H]1C)C[C@H](O)[C@H]2C(=O)O [Compound N38, N-D-(O-tert-butyl)serylnystatin A1] | 16 | 5.95 | 8 | 8 | 16 | 8 | – | – | – | – | –
9 | C[C@@H]1[C@H](O)[C@@H](C)/C=C/C=C/CC/C=C/C=C/C=C/C=C/[C@H](O[C@@H]2O[C@H](C)[C@@H](O)[C@H](NC(=O)[C@@H](N)Cc3ccc([N+](=O)[O-])cc3)[C@@H]2O)C[C@@H]2O[C@](O)(C[C@@H](O)C[C@@H](O)[C@H](O)CC[C@@H](O)C[C@@H](O)CC(=O)O[C@H]1C)C[C@H](O)[C@H]2C(=O)O [Compound N40, N-L-(4-nitrophenyl)alanylnystatin A1] | 16 | 5.56 | 8 | 8 | 16 | 8 | – | – | >300 | 7.45 | >300
10 | CC1OC(O[C@H]2/C=C/C=C/C=C/C=C/CC/C=C/C=C/[C@H](C)[C@@H](O)[C@@H](C)[C@H](C)OC(=O)C[C@H](O)C[C@H](O)C[C@H](O)CC[C@@H](O)[C@H](O)CC3(O)C[C@H](O)[C@@H](C(=O)O)[C@H](C2)O3)C(O)C(NC(=O)[C@H](N)Cc2cccnc2)C1O (stereo partly drawn) [Compound N42, N-D-β-(pyridin-3-yl)alanylnystatin A1] | 32 | 10.54 | 16 | 16 | 32 | 8 | – | – | – | – | –
11 | CNC(C)(C)C(=O)NC1C(O)C(C)OC(O[C@H]2/C=C/C=C/C=C/C=C/CC/C=C/C=C/[C@H](C)[C@@H](O)[C@@H](C)[C@H](C)OC(=O)C[C@H](O)C[C@H](O)C[C@H](O)CC[C@@H](O)[C@H](O)CC3(O)C[C@H](O)[C@@H](C(=O)O)[C@H](C2)O3)C1O (stereo partly shown) [Compound N43, N-[2-(N-methylamino)-2-methylpropan]nystatin A1] | 8 | 5.46 | 8 | 8 | 16 | 8 | – | – | – | – | 283.84
12 | N—(N′-cyclohexylsuccinimidyl)nystatin A1 [Compound N5] | 16 | 5.77 | 8 | 8 | 16 | 8 | – | – | – | – | –
